Among the data in BindingDB's records for patent US12435087 (Cellarity, 2025) are IC50 values, retold here.

SMILES strings stand for the structures. A value given as a limit tells only on which side of the number the result lay.

T1 sequence (Q96GG9 whole entry): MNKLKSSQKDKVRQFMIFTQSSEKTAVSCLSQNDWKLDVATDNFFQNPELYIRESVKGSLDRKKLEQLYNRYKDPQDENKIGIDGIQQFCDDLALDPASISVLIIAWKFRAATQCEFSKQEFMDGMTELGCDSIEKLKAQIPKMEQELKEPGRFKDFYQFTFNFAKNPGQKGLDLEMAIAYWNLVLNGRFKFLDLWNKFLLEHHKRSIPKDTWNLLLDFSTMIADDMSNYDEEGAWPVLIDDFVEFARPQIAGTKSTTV

One assay addresses T1, DCN1-like protein 1 (Homo sapiens, UniProt Q96GG9). The assay is described as follows: TR-FRET Assay (24 hour). The method, then:
(§1) The DCN1 protein was biotinylated (EZ sulfo-NHS-LC-biotin; Thermofisher) for labeling with streptavidin terbium (Tb) cryptate in the reaction. The probe was changed to a non-covalent DCN1 inhibitor labeled with carboxyfluorescein (FAM; Zhou et al., Nat Commun. 2017; 8: 1150. Doi: 10.1038/s41467-017-01243-7). Buffer conditions were modified to enhance protein stability by exchanging Tween20 for TritonX and increasing NaCl to 200 mM. The compounds were screened against 5 nM DCN1 and 20 nM FAM-probe or 0.31 nM DCN1 and 900 nM total probe (100 nM FAM-labeled plus 800 nM unlabeled). The TR-FRET ratio between Tb-DCN1 and the FAM-labeled probe was measured in a 384-well opti-plate (Perkin Elmer) using a plate reader (BMG) at 24 hrs after treatment with compound (final DMSO concentration of 0.1%).
A general note: TR-FRET usually uses a lanthanide donor and a delayed reading to cut background.
For the molecule `C=C(CN(C)C1COC1)C(=O)N(C)Cc1cccc([C@@H]2c3cnn(-c4ccccc4)c3N(CC)C(=O)[C@H]2NC(=O)c2nccc(C(F)(F)F)n2)c1` [US12435087, Compound I-254], the 50% inhibitory concentration (IC50) (in general, the midpoint of a concentration-inhibition curve) was below 200 nM. Same read-out and setting: the result for `C=C(CN1CC2CC(C1)O2)C(=O)N(C)Cc1cccc([C@@H]2c3cnn(-c4ccccc4)c3N(CC)C(=O)[C@H]2NC(=O)c2ccn(C3CC3)n2)c1` [US12435087, Compound I-258] reads below 200 nM. Still for that read-out and setting: in the case of `CCN1C(=O)[C@H](NC(=O)c2cccc(C(F)(F)F)c2)[C@@H](c2cccc(NC(=O)/C=C/CN(C)C)c2)c2c(C)nn(-c3ccccc3)c21` (racemic) [US12435087, Compound I-38] it was below 200 nM; in that of `C=C(CN(C)C1COC1)C(=O)N(C)Cc1cccc([C@@H]2c3cnn(-c4ccccc4)c3N(CC)C(=O)[C@H]2NC(=O)c2ccn(C3CC3)n2)c1` [US12435087, Compound I-239], below 200 nM.

The target of the next assay is T1, DCN1-like protein 1. As to the kind of experiment: TR-FRET Assay (1 hour). The procedure:
as §1, with “1 hour” for “24 hrs”
`C=CS(=O)(=O)Nc1cccc([C@H]2c3c(C)nn(-c4ccccc4)c3N(CC)C(=O)[C@@H]2NC(=O)c2cccc(C(F)(F)F)c2)c1` (racemic) [US12435087, Compound I-5] showed an IC50 below 200 nM.

Regarding `CCN1C(=O)[C@@H](NC(=O)c2nccc(C(F)(F)F)n2)[C@H](c2cccc(C(=O)N3C[C@H](F)C[C@H]3C#N)c2)c2cnn(-c3ccccc3)c21` [US12435087, Compound I-350], the IC50 was in the range of 1000 to 3000 nM. Same read-out and setting: in the case of `C=C(CN1CCOCC1)C(=O)NCc1cccc([C@@H]2c3cnn(-c4ccccc4)c3N(CC)C(=O)[C@H]2NC(=O)c2ccn(C3CC3)n2)c1` [US12435087, Compound I-280] it was below 200 nM; in that of `C=C(CN(C)C1COC1)C(=O)NCc1cccc([C@@H]2c3cnn(-c4ccccc4)c3N(CC)C(=O)[C@H]2NC(=O)c2ccn(C(F)(F)F)n2)c1` [US12435087, Compound I-378], below 200 nM.
